Measurements reported in article doi:10.1101/2020.08.04.236984v1 (bioRxiv, 2020).

Assays:
[1] = test system: HMG-CoA reductase expression in SKBR-3 cells; settings: atorvastatin at a micromolar concentration, ref [57]; cited from earlier work
SKBR-3 cells [2] = experiment: Flow cytometric measurement of penetratin uptake and endo-lysosomal release; format: cell-based; settings: atorvastatin 100 nM and 10 μM, 72 h pre-treatment, versus control
[3] = test system: HMG-CoA reductase expression in MDA-MD-231 cells; settings: atorvastatin at a micromolar concentration, ref [57]; cited from earlier work
MDA-MB-231 cells = experiment: Membrane fluidity, fluorescence anisotropy of TMA-DPH; format: cell-based; settings: atorvastatin 72 h
SKBR-3 cells [4] = experiment: Membrane compactness, generalized polarization of Laurdan; format: cell-based; settings: atorvastatin 72 h, 2 μM Laurdan

CC(C)c1c(C(=O)Nc2ccccc2)c(-c2ccccc2)c(-c2ccc(F)cc2)n1CC[C@@H](O)C[C@@H](O)CC(=O)O [atorvastatin]
induction of HMG-CoA reductase expression [1]: 4 fold
amount of penetratin leaving the endo-lysosomal compartment (SKBR-3 cells [2]): significantly higher
change in HMG-CoA reductase enzyme expression [3]: no change
effect on membrane microviscosity (TMA-DPH anisotropy) (MDA-MB-231 cells): unexpected increase
effect on membrane compactness (generalized polarization of Laurdan) (SKBR-3 cells [4]): decrease
